Values of other authors as cited in patent US20250333373A1, “L-2-Amino-4-Halobutyric Acid Derivative-L-Tartrate and Preparation Method Thereof” (Vulpes Agricultural Corp., priority 2022, published 2025).

Conditions: for herbicidal effect: isomers of racemic glufosinate

CP(=O)(O)CC[C@@H](N)C(=O)O [D]
herbicidal effect: almost inactive

CP(=O)(O)CC[C@H](N)C(=O)O [L-glufosinate]
herbicidal effect: has an herbicidal effect
herbicidal activity relative to common glufosinate (versus common (racemic) glufosinate): twice
